Laboratory results reported in patent US20090004118A1, “Multifunctional Nanoparticle Conjugates And Their Use” (priority 2004, published 2009).

Experiments:
[1] = system: MCF-10A cells (normal breast cells); experiment: MTT cytotoxicity assay, MCF-10A cells; type: cell-based, Human; details: compared to cells treated with Paclitaxel-Heparin-FA
tubulin = experiment: Tubulin polymerization assay; details: 10 μM paclitaxel equivalent, absorbance 340 nm, FIG. 3
tumor cell cultures = details: cited from earlier work
factor Xa = experiment: Factor Xa chromogenic assay (anti Factor Xa heparin activity); type: biochemical; details: FIG. 2

Compound | IC50 values for inhibition of growth of tumor cell cultures (tumor cell cultures) | further results
Nc1nc2ncc(CNc3ccc(C(=O)N[C@@H](CCC(=O)O)C(=O)O)cc3)nc2c(=O)[nH]1 [free folate, folic acid] | – | viability of normal cells [1]: relatively low
CC(=O)O[C@H]1C(=O)[C@@]2(C)[C@H]([C@H](OC(=O)c3ccccc3)[C@]3(O)C[C@H](OC(=O)[C@H](O)[C@@H](NC(=O)c4ccccc4)c4ccccc4)C(C)=C1C3(C)C)[C@]1(OC(C)=O)CO[C@@H]1C[C@@H]2O [paclitaxel] | – | ability to induce microtubule assembly (tubulin polymerization) (tubulin): clear increase in absorbance
calicheamicin | low picomolar range | –
dynemicin | low picomolar range | –
esperamicin | low picomolar range | –
heparin | – | bioactivity measured by factor Xa chromogenic assay (factor Xa): 179 IU/mg
